Reference: PubChem BioAssay (NCI)
Several values for one entry are separate records, joined by “and”; a condition that tells them apart may be missing. Equal entries are not always repeated.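 Test compounds were applied to cells in 96-well plates for 48 hours at 5 doses. GI50 = concentration required for 50% inhibition of growth. The concentration for full growth arrest is given as TGI.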

Legend:
Experiment in all cases: NCI tumour cell line growth inhibition, 48 h
EKVX NSCLC = system: EKVX NSCLC
MDA-MB-435 = system: MDA-MB-435
SK-MEL-28 melanoma = system: SK-MEL-28 melanoma
MOLT-4 leukemia = system: MOLT-4 leukemia
HCT-116 colon = system: HCT-116 colon
OVCAR-3 ovarian = system: OVCAR-3 ovarian
OVCAR-4 ovarian = system: OVCAR-4 ovarian
U251 CNS = system: U251 CNS
SK-MEL-2 melanoma = system: SK-MEL-2 melanoma
A498 renal = system: A498 renal
ACHN renal = system: ACHN renal
MCF7 breast = system: MCF7 breast
UACC-62 melanoma = system: UACC-62 melanoma
MDA-N = system: MDA-N
SN12K1 renal = system: SN12K1 renal
P388 leukemia = system: P388 leukemia
P388/ADR leukemia = system: P388/ADR leukemia

## CCCCCCCCCCCCCCCCCCOP(=O)([O-])OC1CC[N+](C)(C)CC1
EKVX NSCLC
  GI50: > 10 µM
  TGI: > 10 µM and 26.8 µM
MDA-MB-435
  GI50: 5.91 µM
  TGI: > 10 µM and 30.3 µM
SK-MEL-28 melanoma
  GI50: > 10 µM
  TGI: > 10 µM and 34.4 µM
MOLT-4 leukemia
  GI50: 2.15 µM
  TGI: 5.57 µM and 11.3 µM
HCT-116 colon
  GI50: 5.24 µM
  TGI: > 10 µM and 20.6 µM
OVCAR-3 ovarian
  GI50: > 10 µM
  TGI: > 10 µM and 23 µM
OVCAR-4 ovarian
  TGI: > 10 µM and 23.5 µM
U251 CNS
  GI50: 4.02 µM
  TGI: > 10 µM and 26.1 µM
SK-MEL-2 melanoma
  GI50: 8.48 µM
  TGI: > 10 µM and 30 µM
A498 renal
  GI50: 2 µM
  TGI: 7.6 µM and 14.8 µM
ACHN renal
  GI50: 6.37 µM
  TGI: > 10 µM and 25.8 µM
MCF7 breast
  GI50: > 10 µM
  TGI: > 10 µM and 34 µM
UACC-62 melanoma
  GI50: 1.17 µM
  TGI: > 10 µM and 22.5 µM
MDA-N
  TGI: 26.5 µM

## COc1cccc2c1C(CO)N1C(C#N)C3CC(C(=O)O)C(C1C2)N3C (centres undefined)
EKVX NSCLC
  GI50: 0.734 µM
  TGI: 10.6 µM
MDA-MB-435
  GI50: 0.168 µM
SN12K1 renal
  TGI: > 100 µM
SK-MEL-28 melanoma
  GI50: 0.391 µM
  TGI: 3.83 µM and 1.88 µM
MOLT-4 leukemia
  GI50: 0.0934 µM
HCT-116 colon
  GI50: 0.337 µM
  TGI: 5.59 µM
OVCAR-3 ovarian
  GI50: 0.305 µM
OVCAR-4 ovarian
  GI50: 0.705 µM
  TGI: 27 µM
P388 leukemia
  TGI: 6.42 µM
U251 CNS
  GI50: 0.0787 µM
SK-MEL-2 melanoma
  GI50: 0.139 µM
  TGI: 2.32 µM and 0.305 µM
A498 renal
  GI50: 0.304 µM
ACHN renal
  GI50: 0.294 µM
MCF7 breast
  TGI: > 44 µM
UACC-62 melanoma
  GI50: 0.192 µM
  TGI: 2.23 µM and 0.452 µM
P388/ADR leukemia
  TGI: 1.09 µM
MDA-N
  TGI: 0.635 µM and 2.25 µM
